In patent publication US20090076571A1, “MRI-Guided Photodynamic Therapy For Cancer” (priority 2004, published 2009):

What was measured:
[1] = T1 relaxivity of polymer complexes; type: physicochemical; settings: Siemens Trio 3T scanner, inversion recovery sequence
[2] = system: MDA-MB-231 human breast carcinoma xenograft tumor; test: Efficiency of photodynamic therapy (650 nm laser irradiation of tumor); type: in vivo, female athymic nu/nu mice; settings: for Tumor volume after photodynamic therapy: FIG. 11, irradiation 650 nm, 6 mice per group
Method: Molecular weight determination was carried out by Size Exclusion Chromatography (SEC) on an AKTA FPLC system with a Superdex 200/Superose 6 column equipped with UV and refractive index detectors (Amersham Biosciences Corp., Piscataway, N.J.). The FPLC columns were calibrated with poly[N-(2-hydroxypropyl)methacrylamide] standards. ^1H NMR spectra were acquired on a Varian INOVA 400 at 400 MHz at 25° C. ESI-MS spectra were acquired on a PE Sciex API III Mass Spectrometer at the University of Utah Mass Spectrometry and Proteonomic Core Facility. Meso chlorin content was determined on Cary Win UV-Vis spectrometer. Gd content was determined using Inductively Coupled argon Plasma-Optical Emission Spectrometer (ICP-OES) (Perkin Elmer, Norwalk, Conn., Optima 3100XL). T1 relaxivity measurements for the final conjugates were acquired on a Siemens Trio 3T MRI scanner using standard inversion recovery sequence. Photodynamic therapy was carried out via Diode Odyssey laser (650nm) (CAO Group, UT).
Female athymic nu/nu mice were purchased from NCI (Frederick, Md.) at the age of 6 weeks. […] Magnetic resonance imaging and photodynamic therapy studies were carried out at an average tumor size of 25-40 mm^3.
Then the tumor was irradiated, 2 hours and 18 hours post-injection, using light of wavelength 650 nm (Denlaser) with an input of 220 mW/cm^2 energy and 0.5 mm aperture for irradiation. The time of irradiation was 15 minutes. The mice were then kept away from direct light to avoid extraneous irradiation and the reduction in tumor volume was measured.
Efficiency of Photodynamic therapy.

[3] = system: MDA-MB-231 human breast carcinoma xenograft tumor; test: Contrast-enhanced MR imaging of tumor-bearing mice after injection of polymer conjugates; type: in vivo, female athymic nu/nu mice; settings: for Contrast in all tissues including tumor, heart and liver compared to pre-contrast: 5 minutes post injection; for Increase in signal intensity of tumor as compared to precontrast: 2 hours post injection, semi-quantitative evaluation, 6 mice per group
Method: Female athymic nu/nu mice were purchased from NCI (Frederick, Md.) at the age of 6 weeks. To generate tumor models, each mouse was injected subcutaneously with 2×10^6 MB-231 cells in 100 μl of culture media mixed with 100 μl of BD MATRIGEL, a solubulized basement membrane preparation extracted from EHS mouse sarcoma, in the flank region. Magnetic resonance imaging and photodynamic therapy studies were carried out at an average tumor size of 25-40 mm^3.
MR imaging was performed on a Siemens Trio 3T MRI scanner. The animals were anesthetized by intra-peritoneal or intra-muscular injection of the anesthetic (mixture of ketamine—80 mg/kg body weight and xylazine—12 mg/kg body weight).
For imaging purposes, the animals were placed in the human wrist coil and pre-contrast images (prior to the injection of the polymer chelate system containing the drug and the contrast agent) were obtained using a 3D FLASH (Fast Low Angle Shot) sequence.
After obtaining the pre-contrast images, the macromolecular complexes were injected at a dose of 0.09 mmol Gd/kg body weight and 6 mg/kg of Mce6 by tail vein injection. Image acquisition was set at 5, 30, 60, 120 minutes and 24 hours post injection. Animal imaging was performed using the multi-phase T1 weighted sequence. The repetition time was about 6 milliseconds to 2 milliseconds, respectively; consistent with the 4 to 8 cm FIV (field of view) and 0.5 mm slice thickness chosen for each animal. The imaging volume was acquired before injection and in rapid succession after injection. Each acquisition required about 30 seconds.
MR imaging. […] FIG. 7 and FIG. 8 show 2D coronal MR images through tumor and heart respectively. The upper panel of FIG. 7 represents mice with Pol1 and the lower panel upper represents mice with Pol2. The upper panel of FIG. 8 represents mice with Pol1 and the lower panel represents mice with Pol2. […] The higher signal in heart may be due to high molecular weight fractions of the control polymer.
Increase in Signal intensity of tumor for both groups as compared to precontrast at 2 hours is 100%. Signal intensity at 18 hours post injection was at least 30% higher than precontrast for both Pol1 and Pol2. Quantitative evaluation of signal intensities using IDL was performed to corroborate the data obtained from semi-quantitative analysis.

| Substance | Relaxivity [1] | Tumor volume after photodynamic therapy [2] | Mice with tumors larger than 10% of the body weight, sacrificed ([2]; out of 6 mice in the group) | Contrast in all tissues including tumor, heart and liver compared to pre-contrast [3] | Increase in signal intensity of tumor as compared to precontrast [3] | Mice surviving for the time period of the experiment ([2]; 90 days, group of 6 mice) |
| --- | --- | --- | --- | --- | --- | --- |
| Gd (III)-DOTA-linker-PLGA [Pol2] | 8.33 mM − 1 sec − 1 | rapid increase in tumors | 5 | increased contrast | 100% |  |
| Gd (III)-DOTA-linker-PLGA-Mce6 [Pol1] | 8.46 mM − 1 sec − 1 | reduction in tumor volume or slowed tumor growth |  | increased contrast | 100% | 4 out of 6 |
